Results published in patent publication US20090247520A1, “INHIBITORS OF ANTIGEN RECEPTOR-INDUCED NF-kappa B ACTIVATION” (The Burnham Institute for Medical Research, priority 2008, published 2009).
Entries after “also recorded” stand apart in the source; their conditions may differ. Like-named read-outs stand apart in the source and are kept apart here.

Experiments:
Type in all cases: cell-based
[1] = tested on: PDB-induced NF-κB reporter gene activity; test: PDBu-induced NF-κB reporter gene activity in HEK293 cells; conditions: Homo sapiens
Method: (A) Structures of two hit compounds, CID-2858522 (left) and CID-2998237 (right) are shown; (B, C) 293-NF-κB-luc cells were pretreated for 2 hrs with various concentration of either CID-2858522 (B) or CID-29982387 (C) and then stimulated with TNF (10 ng/mL) or PMA/lonomycin (10 ng/mL; 5 ng/mL) for 16 h. Luciferase activity was measured and data were expressed as a percentage relative to control treatment with DMSO only (mean±SD; n=3). (D) 293-NF-κB-luc cells were pretreated for 2 h with various concentrations of CID-2858522 or CID-2998237, then stimulated with PMA/lonomycin for 16 h. IL-8 release into the medium was measured, expressing data as a percentage relative to control cultures treated with DMSO (mean±SD; n=3). (E) 293-NF-κB-luc cells were pretreated with CID-2858522 and then stimulated with PDBu for 16 h, IL-8 production and NF-κB luciferase activity were measured as above. (F) 293-NF-κB-luc cells were pretreated for 2 h with various concentrations of CID-2858522 or a PKC inhibitor (Bisindolylmaleimide I) at 1 μM followed by PMA/Ionomycin (10 ng/mL) stimulation for 2 h, then p65-DNA-binding activity was measured in nuclear extracts (10 μg protein), expressing data as fold-increase relative to unstimulated cells (mean±SD; n=3).
HTS. […] Plates were analyzed within 30 seconds with a Criterion Analyst™ using the luminescence method (0.1 second read/well).

[2] = tested on: γ-TriDAP (NOD1 agonist) stimulated IL-8 production; test: IL-8 production by MCF7 cells stimulated with γ-TriDAP; conditions: listed as CID-2858522
Description: (§1) FIG. 1 is a flow chart of screening and counter-screenings for selective inhibitors of antigen-receptor induced NF-κB pathway. A total of 114,889 compounds were screened. From a screen of 53,280 commercially available compounds (left column), 519 hits were obtained, of which 248 reconfirmed using the same primary screening assay. […] From these 11 active compounds, one hit, CID-2858522, inhibited PMA/Ionomycin-induced production of cytokine IL-8 by the HEK293 cell line. CID-2858522 was then characterized (right column). PDB was substituted for PMA to confirm suppression of an alternative PKC activator. Pathway selectivity was assessed using panels of cell lines, starting with HEK293 cells in which each of the remaining NF-κB activation pathways was stimulated, showing inhibition only of PMA/Ionomycin-induced NF-κB reporter gene activity (panel 1). […]

[3] = tested on: Anti-Lymphotoxin-β induced NF-κB luciferase activity; test: NF-κB luciferase in HeLa cells induced by anti-Lymphotoxin-β receptor; conditions: listed as CID-2858522
Description: as §1

IKK-β phosphorylation = test: PMA/Ionomycin-induced IKK-β phosphorylation in HEK293 cells; conditions: 4 μM
Method: FIG. 7. CID-285852 inhibits IKKβ phosphorylation induced by PKC activators. (A) HEK293 cells were cultured in 0.5% FBS medium for 24 h and then treated with CID-2858522 (4 μM) or PKC inhibitor, Bisindolylmaleimide I (1 μM) for 2 hrs followed by PMA/Ionomycin (10 ng/mL; 5 ng/mL) for 2 h. Cell lysates were subjected to immunoprecipitation using anti-CARMA1 antibody and analyzed by immunoblotting with anti-phospho-CARMA1 antibody or anti-CARMA1 antibody. (B-E) HEK293 cells were transfected with plasmids encoding myc-CARMA1 in combination with plasmids encoding various other proteins including Caspase-8 (cys287ala) (B), HA-IKK-γ (C), HA-TAK1 (D), and TRAF6 (E). After 36 h. cells were cultured in 0.5% FBS medium for 12 h and then treated with CID-2858522 (4 μM) or Bisindolylmaleimide I (1 μM) for 2 hrs, followed by PMA/Ionomycin treatment (10 ng/mL; 5 ng/mL) for 2 hrs. Cell lysates were immunoprecipated using anti-myc antibody and analyzed by immunoblotting using anti-Caspase8 (B), anti-HA (C,D), or anti-TRAF6 (E) antibodies. […] Cell lysates were normalized for protein content and analyzed by immunoblotting using anti-FLIP and anti-alpha-tubulin antibodies. […] Cell lysates were immunoprecipitated using anti-IKK-β and analyzed by immunoblotting using anti-phospho-IKK-β antibody or anti-IKK-β antibody (as loading control). […]

Cc1cc2nc(NCCCO)n(CC(=O)c3cc(C(C)(C)C)c(O)c(C(C)(C)C)c3)c2cc1C [Compound 1, 2-(2-(3-Hydroxypropylamino)-5,6-dimethyl-1H-benzo[d]imidazol-1-yl)-1-(3,5-di-tert-butyl-4-hydroxyphenyl)ethanone]
IC50 ([1]; read-out: IC50, PDB-induced NF-κB reporter gene activity): 70 nM | IC50 ([1]; read-out: IC50, PDBu-induced NF-κB reporter gene assay (cellular potency)): < 100 nM | suppression of IL-8 production, γ-TriDAP-stimulated MCF7 [2]: failed to inhibit; also recorded: did not suppress | suppression of NF-κB luciferase, anti-Lymphotoxin-β in HeLa [3]: failed to inhibit; also recorded: did not suppress | inhibition of PMA/Ionomycin-induced IKK-β phosphorylation (IKK-β phosphorylation): significantly inhibited
